Reference: US10464941B2, “Therapeutic compounds” (REGENTS OF THE UNIVERSITY OF MINNESOTA, priority 2015, dated 2019)
Marks after values point to notes of the source that are not given here.

What was measured:
[1] = biological target: T1, CCR5 receptors expressed in HEK-293 cells (Homo sapiens, UniProt P51681); experiment: Intracellular calcium release, CCL5-stimulated CCR5 in HEK-293 cells; assay type: cell-based; details: CCR5 expressing HEK cells stimulated by CCL5
T1 construct: expressed in transfected cells; host or cells: HEK-293 cells, transient transfection with Lipofectamine 2000
T1 sequence (P51681 whole entry): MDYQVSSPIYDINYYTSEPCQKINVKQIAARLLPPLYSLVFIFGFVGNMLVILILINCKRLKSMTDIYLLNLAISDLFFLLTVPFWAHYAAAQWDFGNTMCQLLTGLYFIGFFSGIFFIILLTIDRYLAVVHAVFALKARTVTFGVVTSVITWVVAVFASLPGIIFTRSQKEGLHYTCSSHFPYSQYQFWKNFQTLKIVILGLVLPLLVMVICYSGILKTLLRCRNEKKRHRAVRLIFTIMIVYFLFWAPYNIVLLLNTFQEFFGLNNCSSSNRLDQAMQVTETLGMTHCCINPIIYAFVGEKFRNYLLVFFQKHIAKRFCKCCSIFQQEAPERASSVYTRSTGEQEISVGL
Protocol: Briefly, HEK-293 cells were cultured at 37° C. in Dulbelcco's modified Eagle's medium supplemented with 10% fetal bovine serum and 1% Penicillin/Streptomycin. Then 100 mm^2 were transiently transfected with CCR5 receptor cDNA using OptiMEM-1 medium (Invitrogen) and Lipofectamine 2000 (Invitrogen, Carlsbad, Calif.) reagent according to manufacturer's protocol (1:2 wt/vol ratio for DNA:Lipofectamine; 16 μg DNA: 32 μl Lipofectamine). The cells were seeded into 96 well plates (half-area; Corning) at 20,000 cells/well after 24 hours and assayed 48 hours after transfection using the FLIPR calcium kit (Molecular Devices) in a Flexstation-III apparatus (Molecular Devices). Cells were incubated with the calcium dye for 45 minutes at 37° C. before the antagonists were added to each well at the concentration listed, and incubated at 37° C. for 15 minutes. The control agonist, CCL5 (RANTES), was added at a concentration that elicited an 80% maximal response in untreated cells (100 nM) to each well and the calcium response measured with and without antagonists for 90 seconds. The change in RFU was calculated by subtracting the minimum relative fluorescent unit (RFU) from the maximum RFU response, replicated 6 times and averaged. Each experiment was repeated at least 3 times and the mean±SEM was plotted for each treatment group. Plates were 80-90% confluent, cells

[2] = test system: mice with cisplatin-induced hyperalgesia; experiment: Cisplatin-induced peripheral neuropathy, mechanical hyperalgesia (von Frey); assay type: in vivo, C3H/HeJ mice; details: cisplatin model
Protocol: Adult male C3H/HeJ mice were tested for mechanical paw withdrawal responses on 2 consecutive days prior to treatment by determining the frequency of hind paw withdrawal evoked by a standard von Frey monofilament with a bending force of 3.9 mN applied to the plantar surface of the hind paws. Mice were then given 1 mg/kg of cisplatin intraperitoneal (i.p.) daily for 7 consecutive days and on day 14 post-injection, mechanical hyperalgesia was assessed. Compounds were administered intrathecally (i.t.) and i.p. weekly to determine peak time effects and ED50/80.

[3] = test system: CFA-induced mechanical hyperalgesia mouse model; experiment: Complete Freund's Adjuvant (CFA) mechanical hyperalgesia, electronic von Frey; assay type: in vivo, mice; details: i.t.
Protocol: Before injection of CFA baseline withdrawal thresholds (g) were obtained from a mechanical stimulation using an electronic von Frey anesthesiometer (IITC Life Sciences, Woodland Hills, USA) by applying an accurate force on both left and right hind paw. (2,3) The left hindpaws were then injected (intraplantar) with a 50% solution of CFA (10 μg, Sigma-Aldrich) in water while the mice are under isoflurane anesthesia (10). Twenty-four hours later the withdrawal threshold (g) was again measured prior to and after the test compound i.t. at 10, 20, 30 and 60 minutes to determine the peak time and subsequent ED50. % MPE was calculated ((Time-point withdrawal threshold with drug−CFA withdrawal threshold)/(Day 0 withdrawal threshold−CFA withdrawal threshold))*100 (Wade, C. L., et al., PLoS One 2013, 8, e79239/1-e79239/11, 11 pp; Martinov, T., et al., J Vis Exp 2013, e51212; Sorge, R. E., et al., J. Neurosci. 2011, 31, 15450-15454).

LPS-pretreated mice = experiment: animal or person; details: for LPS pretreated i.c.v./i.t. ratio / LPS pretreated ED50 (CI) i.c.v. / LPS pretreated ED50 (CI) i.t.: LPS 1 mg/kg 24 hours i.p.; for LPS pretreated ED50 (CI) i.c.v. / LPS pretreated ED50 (CI) i.t.: tail flick; for LPS pretreated ED50 (CI) i.t. / ED50 values (95% CI) LPS (thermal) / tolerance upon repeated administration: i.t.; for ED50 values (95% CI) LPS (thermal): LPS thermal hyperalgesia model; for tolerance upon repeated administration: LPS-pretreated mice
Protocol: Male ICR-CD1 mice (17-25 g; Harlan, Madison, Wis.), C3H mice (15-20 g, National Cancer Institute, Bethesda, Md.) or TLR4 knock-out mice (gift from Dr. Sabita Roy) were housed, 4 to a small box in a temperature- and humidity-controlled environment with unlimited access to food and water. They were maintained on a 12 h light/dark cycle. All experiments were approved by the Institutional Animal Care and Use Committee of the University of Minnesota (Minneapolis, Minn.).
The tail flick assay is used to test for antinociception described by D'Amour and Smith^64 and modified by Dewey et. al.^65 Mice are held gently in one hand with the tail positioned in the apparatus (Tail Flick Analgesia Meter, Columbus Instruments, Columbus, Ohio) for radiant heat stimulus. The tail-flick response is elicited by applying radiant heat to the dorsal side of the tail. The test latency is measured before drug treatment (control) and again after the drug treatment (test) at the peak time of the compound, a 10 s maximum cut-off time is used to prevent damage to the tail. Antinociception is quantified according to the method of Harris and Pierson^66 as the percent maximal possible effect (% MPE) which is calculated as: % MPE=(Test−Control/10−Control)×100
A minimum of three groups of eight to ten mice are used for each dose response curve, and each mouse is used only once.
The compounds were tested for acute tolerance by comparing the ED80-90 dose measured on day 1 to the same dose administered and retested 24 hours later on the same mouse.
Compounds were dissolved in 5% DMSO and diluted to less than 1% DMSO for injection. These compounds were administered in a volume of 5-μl either i.c.v (Haley and McCormick) or intrathecal (i.t.) as described for mice by Hylden and Wilcox^67 in conscious mice. […] Time course studies, including the times 5, 10, 20, 30 and 60 minutes were used to determine the peak antinociception.
Pain is a hallmark of many inflammatory conditions. […] Antinociception was evaluated using the radiant heat-induced tailflick assay. Morphine was employed as a standard opioid agonist under these conditions.

control mice = experiment: Radiant heat tail-flick antinociception, control (LPS-untreated) mice; assay type: in vivo; details: control mice; for CONTROLS ED50 (CI) i.c.v. / CONTROLS ED50 (CI) i.t.: tail flick
From the text: Pain is a hallmark of many inflammatory conditions.

Row | SMILES | inhibiting calcium release (compared with TAK-220) [1] | ED50 (95% CI) i.p. ([2]; i.p.) | tolerance ([2]; i.p.) | tolerance ([2]; i.p., listed as morphine) | ED50 (95% CI) i.t. ([2]; i.t.) | tolerance ([2]; i.t.) | ED50 values (95% CI) CFA (mechanical) [3] | LPS pretreated i.c.v./i.t. ratio (LPS-pretreated mice) | LPS pretreated ED50 (CI) i.c.v. (LPS-pretreated mice) | LPS pretreated ED50 (CI) i.t. (LPS-pretreated mice) | ED50 values (95% CI) LPS (thermal) (LPS-pretreated mice) | tolerance upon repeated administration (LPS-pretreated mice) | CONTROLS i.c.v./i.t. ratio (control mice) | CONTROLS ED50 (CI) i.c.v. (control mice; i.c.v.) | CONTROLS ED50 (CI) i.t. (control mice; i.t.) | acute tolerance (ED80 retested 24 hours later) (control mice; i.c.v.) | acute tolerance (ED80 retested 24 hours later) (control mice; i.t.)
1 | CNC(=O)COCC(=O)N1CCC(CC(=O)N(CCCN2CCC(Cc3ccc(C(N)=O)cc3)CC2)c2ccc(C)c(Cl)c2)CC1 [Compound 8c, N-(3-(4-(4-carbamoylbenzyl)piperidin-1-yl)propyl)-N-(3-chloro-4-methylphenyl)-1-(2-(2-(methylamino)-2-oxoethoxy)acetyl)piperidine-4-carboxyamide] | equally potent |  |  |  |  |  |  |  |  |  |  |  |  |  |  |  | 
2 | CN1CC[C@]23c4c5ccc(O)c4O[C@H]2[C@@H](O)C=C[C@H]3[C@H]1C5 [Morphine, morphine, reference compound] |  | 14.28 pmol/mouse | significant tolerance | exhibits 24 h tolerance | 27.44 pmol/mouse | significant tolerance | 15 pmol/mouse | 8.60 | 301 pmol/mouse | 35.0 pmol/mouse | 35 pmol/mouse | exhibited tolerance | 11.1 | 301 pmol/mouse | 27.0 pmol/mouse |  | 
3 | CNC(=O)COCC(=O)NCCCCCCCNC(=O)COCC(=O)N[C@H]1CC[C@@]2(O)C3Cc4ccc(O)c5c4[C@@]2(CCN3C)[C@H]1O5 [Compound 4, reference compound] |  |  |  |  |  |  | 27 pmol/mouse | 7.93 | 169 pmol/mouse | 21.3 pmol/mouse | 21 pmol/mouse | exhibited tolerance | 0.95 | 108 pmol/mouse | 113 pmol/mouse | (83.1-141)^c | (86.5-148)^c
